Results taken from patent US20050271588A1, “Liposome targeting of matrix metalloproteinase inhibitors” (priority 2001, published 2005).
Positions of bridges follow the written chain, without caps; N, C: chain ends. No end group written: not given here.

Key:
MMP-9 = target: T1, MMP-9 (Homo sapiens, UniProt P14780); test: Gelatinase assay with fluorogenic peptide substrate; format: biochemical; details: 100 μM EDTA, MMP-9 5 nM
T1 construct: made in house
Experimental: The activity of MMP-9 was measured also using the fluorogenic peptide substrate MCA-Pro-Leu-Ala-Nva-Dpa-Ala-Arg (Calbiochem, San Diego, Calif., USA). More specifically, 50 ng of MMP-9 was preincubated in PBS for 30 min at RT in the absence or presence of CTT or its liposome complex. Subsequently, the fluorogenic substrate was added to a final concentration of 0.1 mM and the incubation was continued at 37° C. for 15 min, whereafter fluorescence intensities were measured with exitation at 340 nm and emission at 390 nm in a microtiter plate reader.

HT1080 cells = test: Blocking of CTT-liposome uptake by antibodies and proteinase inhibitors; format: cell-based, human; details: TIMP-2 10 μg/ml, Marimastat 50 μM, EDTA 500 μM, aprotinin 1 μg/ml
Experimental: We further investigated if cell surface-bound gelatinases were the receptors for the CTT-containing liposomes. Cells were washed to remove soluble forms of gelatinases, and then preincubated for 30 min with MMP inhibitors or specific antibodies before the addition of liposomes.
(§1) We also preincubated cells with phorbol ester (TPA) (50 nM). Preincubation times varied from 15 to 75 min. Treatment of cells by phorbol ester (TPA) increases both expression and secretion of MMP-9 (Toth et al., 1997). […] M-17 inhibits the binding of MMP-9 to the substrate and this inhibition is expected to be concentration dependent. It is not known if rabbit polyclonal antibody blocks human MMP-2 (Murphy et al., 1994). Final concentrations of the indicated peptide, Adriamycin, antibodies and liposomes were 85 μM, 0.2 mM, 20 μg/ml, and 0.4 μM, respectively.

cells = test: Effect of phorbol ester (TPA) preincubation on CTT-liposome uptake; format: cell-based; details: TPA 50 nM
Experimental: as §1, with “1997). Results are presented as RFI=I/I0, where RFI is relative fluorescence intensity, I0 is the emission intensity for the control, 2 μM rhodamine B in LUVs without the peptides, and I is the rhodamine emission for the peptide-liposome complexes taken up by the cells.” for “1997).”

[1] = Penetration of peptides into lipid monolayers (surface pressure); format: physicochemical; details: eggPC monolayer, peptide 200 μM
Experimental: Interaction of peptides with lipid monolayers. Penetration of peptides into mono-molecular lipid films was measured using magnetically stirred circular wells (subphase volume 400 μl). Surface pressure (π) was monitored with a Wilhelmy wire attached to a microbalance (μ TroughS, Kibron Inc., Helsinki, Finland) connected to a Pentium PC. Lipids were spread on the air-buffer (PBS, pH 7) interface in chloroform (approx. one mg/ml) to different initial surface pressures (π0) and were allowed to equilibrate for 15 min before the addition of the indicated peptides (4 μ1,10 mg/ml in H2O and CWL in DMSO) into the subphase. The increment in π from the initial surface pressures (π0) after the addition of peptide was complete in approximately 20 min and the difference between π0 and the value observed after binding of the peptide into the film was taken as Δπ. All measurements were performed at ambient temperature (˜+24° C.). The data are represented as Δπ vs. […] (Brockman, 1999).

[2] = Assay for lipid mixing (liposome fusion, NBD-PE/DPPRho); format: physicochemical; details: within 15 min
Experimental: The extent of exposure of Trp to the aqueous phase was studied using I— as a collisional quencher (Lakowicz, 1999). The extent of quenching was calculated by using the equation: F0/F=1+k[Q]=1+kqτ0[Q] where F0 and F are Trp fluorescence intensities at 345 nm in the absence and presence of the quencher, Q, τ0 is Trp fluorescence lifetime in the absence of the quencher, k is the Stern-Volmer constant (obtained from the slope of the linear fit of the data). Fluorescence of Trp in CTT (5 μM) and its quenching were measured in the absence and presence of POPC/POPE (80:20, mol/mol) LUVs (final lipid concentration of 0.5 mM). The results were corrected for background caused by PBS and liposomes. Assay for lipid mixing. The ability of the CTT, CLP, STT, and CWL peptides to induce liposome fusion was assessed by measuring lipid mixing, as described earlier (Struck et al., 1981). In brief, NBD-PE (X=0.01) and DPPRho (X=0.01) were incorporated into liposomes (POPC/POPE, 78/20, mol/mol). Due to the spectral overlap of NBD-PE (donor) emission and DPPRho (acceptor) absorption resonance energy transfer between these dyes is highly efficient. As liposomes containing NBD-PE and DPPRho are mixed with non-labeled liposomes, fusion is observed as an increase in the emission intensity of NBD-PE due to the dilution of probes. Excitation and emission wavelengths for NBD-PE at 430 nm and 530 nm were used. All fluorescence measurements were done at 37° C.

U937 cells [3] = test: Uptake of liposome-encapsulated rhodamine B by U937 cells; format: cell-based; details: U937, fluorescence plate-reader
Experimental: In another series of experiments the water-soluble fluorescent marker rhodamine B was encapsulated into liposomes and its uptake by cells was measured. Samples for rhodamine B uptake were prepared by mixing 60 μl of POPC/POPE (80/20, mol/mol, one mM) liposomes containing 10 μM rhodamine B to 300 μl of DMEM medium supplemented with 10% fetal bovine serum, Glutamax I, penicillin 100 U/ml and streptomycin 0.1 mg/ml. Peptides were then added to obtain a final concentration of […]. Ten μl (10^5 cells) of medium containing the indicated cells were combined with the LUVs. After an incubation for 15 min at 37° C. or +4° C. liposomes not bound to the cells were removed from 96-well plates by rinsing three times with cold PBS. The +4° C. temperature served as a control for non-endocytotic liposome uptake by cells (Oess and Hildt, 2000). The relative amount of rhodamine B associated with the cells was determined using microplate reader with excitation at 535 nm and emission at 595 nm.
as §1, with “1997). Results are presented as RFI=I/I0, where RFI is relative fluorescence intensity, I0 is the emission intensity for the control, 2 μM rhodamine B in LUVs without the peptides, and I is the rhodamine emission for the peptide-liposome complexes taken up by the cells.” for “1997).”
Cell cultures and fluorescence microscopy. U937 (ECACC 85011440), HT 1080 (ECACC 85111505), and CHO (ECACC 85050302) cells were cultured in RPMI or DMEM medium supplemented with 10% fetal bovine serum, Glutamax I, penicillin (100 U/ml), and streptomycin (0.1 mg/ml). Uptake of rhodamine B containing liposomes by the cultured cells was verified by fluorescence microscopy. An inverted fluorescence microscope (Zeiss IM 35) equipped with Nikon extra long working distance objectives (20×) and (40×) were used. Samples were prepared as described for the rhodamine uptake assay, with slight modifications. Accordingly, instead of washing, U937, HT 1080, and CHO cells with the rhodamine-containing liposomes and in cell culture medium were transferred into Nunclon 48 plate wells. Excitation and emission wavelengths were selected by suitable bandpass filters (Melles-Griot) transmitting in the range 535 nm and >600 nm, respectively. Fluorescence images were viewed with a Peltier-cooled digital camera (C4742-95, Hamamatsu, Japan) connected to a computer and operated by software (Hipic 5.0) provided by the instrument manufacturer.

U937 cells [4] = test: Cell killing by Adriamycin-containing liposomes, EthD-1 viability assay; format: cell-based; details: U937, 24 h, peptide 85 μM, Adriamycin 0.4 μM
Experimental: Viability assays. Peptide-liposome complexes with the encapsulated adriamycin were made as described above, yielding final concentrations of peptide, lipid, and adriamycin of 85 μM, 0.2 mM, and 0.4 μM, respectively, and were subsequently added to a ten μl (10^5 cells) sample of U937 cells. For the detection of dead cells EthD-1 was used. This fluorophore is membrane-impermeable and emits fluorescence only when bound to DNA (Papadopoulos et al., 1994). Accordingly, EthD-1 readily enters dead cells and binds to their DNA, its fluorescence intensity correlating to the amount of dead cells. EthD-1 emission was measured using microplate reader with excitation at 495 nm and emission at 635 nm. Student's t-test was used to assess statistical significance.

MMP-2 = target: T2, MMP-2 (Homo sapiens, UniProt P08253); test: Casein zymography, inhibition of MMP-2; format: biochemical; details: 85 μM peptide
T2 construct: purchased Boehringer Mannheim GmbH (Germany)
T2 sequence (P08253 110-660): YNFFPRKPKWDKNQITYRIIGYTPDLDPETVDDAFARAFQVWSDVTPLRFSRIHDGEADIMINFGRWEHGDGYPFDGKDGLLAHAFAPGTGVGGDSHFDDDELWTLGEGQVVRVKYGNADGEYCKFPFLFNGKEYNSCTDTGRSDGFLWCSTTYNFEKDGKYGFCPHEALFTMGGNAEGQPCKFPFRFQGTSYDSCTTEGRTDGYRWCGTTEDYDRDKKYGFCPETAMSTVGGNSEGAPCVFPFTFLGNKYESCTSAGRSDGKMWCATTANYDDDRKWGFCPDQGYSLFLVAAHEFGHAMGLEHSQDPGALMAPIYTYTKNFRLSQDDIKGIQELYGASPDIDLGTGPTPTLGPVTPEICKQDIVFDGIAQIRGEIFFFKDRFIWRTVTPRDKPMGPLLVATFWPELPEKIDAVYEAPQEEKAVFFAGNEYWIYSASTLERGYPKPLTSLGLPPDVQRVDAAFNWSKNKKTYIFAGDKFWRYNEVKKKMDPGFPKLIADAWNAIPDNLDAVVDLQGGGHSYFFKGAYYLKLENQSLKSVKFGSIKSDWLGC
Experimental: Assay for gelatinases. Inhibition of MMP-9 and MMP-2 by the different synthetic peptides was measured using casein zymography (Halinen et al., 1996). MMP-9 was purified as described (Sorsa et al., 1997). Subsequently, MMP-2 (2.5 μg) or MMP-9 (2.5 μg) was run on a 10% SDS-PAGE containing two mg/ml casein. The gel was first washed in Triton X-100 containing buffer to remove SDS, and it was cut into five slices which were immersed into peptide (CTT, CLP, CWL or STT) containing solutions (85 μM). After incubation for 48 hrs at 37° C., the gels were stained with Coomassie blue, scanned, and the digested areas quantitated using image analysis (Global Lab Image 3.2, Data Translation Inc. and Acuity Imaging Inc., Marlboro, Mass., USA).

T1 sequence (P14780 94-707): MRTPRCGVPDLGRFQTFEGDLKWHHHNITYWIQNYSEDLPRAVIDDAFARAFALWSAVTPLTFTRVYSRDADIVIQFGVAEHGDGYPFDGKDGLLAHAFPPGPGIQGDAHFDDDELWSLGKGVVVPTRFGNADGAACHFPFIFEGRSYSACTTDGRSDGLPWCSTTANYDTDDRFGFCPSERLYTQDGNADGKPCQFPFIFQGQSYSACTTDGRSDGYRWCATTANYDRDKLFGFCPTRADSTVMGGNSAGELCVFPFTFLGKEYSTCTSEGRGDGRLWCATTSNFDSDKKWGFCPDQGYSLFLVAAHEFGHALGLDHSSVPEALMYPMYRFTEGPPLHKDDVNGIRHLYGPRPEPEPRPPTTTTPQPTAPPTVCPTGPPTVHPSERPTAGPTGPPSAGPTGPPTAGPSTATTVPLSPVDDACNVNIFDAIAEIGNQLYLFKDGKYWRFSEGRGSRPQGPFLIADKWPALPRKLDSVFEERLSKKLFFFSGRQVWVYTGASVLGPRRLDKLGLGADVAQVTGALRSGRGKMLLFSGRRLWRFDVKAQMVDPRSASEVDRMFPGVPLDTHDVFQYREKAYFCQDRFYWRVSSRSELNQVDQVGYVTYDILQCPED

## O=C(O)CN(CCN(CC(=O)O)CC(=O)O)CC(=O)O [EDTA, reference compound]
MMP-9
  Inhibition of MMP-9: Complete inhibition

## CNC(=O)[C@@H](NC(=O)[C@H](CC(C)C)[C@H](O)C(=O)NO)C(C)(C)C [Marimastat]
HT1080 cells
  Inhibition of liposome transfer into cells: approx. 50%

## CCCCCCCCCCCCCC(=O)O[C@@H]1[C@@H](C)[C@@]2(O)[C@@H](C=C(CO)C[C@]3(O)C(=O)C(C)=C[C@@H]23)[C@H]2C(C)(C)[C@]12OC(C)=O [TPA]
cells; prolonged incubation (75 min)
  Effect on uptake of CTT-liposomes: inhibited
cells; short exposure time (15 min)
  Effect on uptake of CTT-liposomes: increased

## CLPGHWGFPSC (cysteine pairing not given here) [CTT homolog, part of EGF-7 domain in human laminin β-1 chain]
[1]
  Initial monolayer packing pressure above which membrane penetration was abolished: 33 mN/m
[2]
  Lipid mixing / vesicle fusion (NBD-PE emission): lack of lipid mixing
U937 cells [3]
  Enhancement of uptake of liposome-encapsulated rhodamine vs liposomes lacking peptide: Only minor effect
U937 cells [4]
  Increase in killing of cells vs Adriamycin liposomes without peptide: 1.3 fold

## Cys-Trp-Leu-Thr-Phe-Thr-His-Gly-Thr-Cys (CWLTFTHGTC; disulfide 1-10) [scrambled cyclic peptide, reference compound]
U937 cells [3]
  Enhancement of uptake of liposome-encapsulated rhodamine vs liposomes lacking peptide: inefficient
U937 cells [4]
  Increase in killing of cells vs Adriamycin liposomes without peptide: not

## STTHWGFTLS
MMP-2
  Inhibition of MMP-2 activity: approx. 30%
[1]
  Initial monolayer packing pressure above which membrane penetration was abolished: 31 mN/m
[2]
  Lipid mixing / vesicle fusion (NBD-PE emission): lack of lipid mixing
U937 cells [3]
  Enhancement of uptake of liposome-encapsulated rhodamine vs liposomes lacking peptide: Only minor effect
U937 cells [4]
  Increase in killing of cells vs Adriamycin liposomes without peptide: 1.7 fold

## aprotinin
HT1080 cells
  Inhibition of liposome transfer into cells: no significant inhibitory effect
